Earlier results as cited in patent US20250312270A1, “READY-TO-INFUSE PHENYLEPHRINE COMPOSITIONS” (AMNEAL EU, LIMITED, priority 2023, published 2025).

System: blood pressure
Settings: doses above 6 mcg/kg/min, intravenous continuous infusion, adult patients with septic or other vasodilatory shock

CNC[C@H](O)c1cccc(O)c1 [phenylephrine, (R)-3-Hydroxy-α-(methylaminomethyl)benzyl alcohol]
incremental increase in blood pressure: do not show significant incremental increase in blood pressure
